# From patent publication US11814648B2, “Functional oligodendrocytes derived from pluripotent stem cells and methods of making and using the same” (New York Stem Cell Foundation, Inc., priority 2014, dated 2023)
# Assays:
# O4^+ cells = assay: FACS-analysis for O4+ cells at day 75 of differentiation; type: cell-based, human; conditions: RA only vs RA and SAG in the first 12 days
# Description: FIGS. 3A-3C show SHH and dual SMAD inhibition requirements for OLIG2^+ progenitors. […] Endogenous SHH levels are higher in the samples that were not exposed to SHH/SAG. Error bars are SEM (N=3). […] Negative Control: APC-conjugated secondary antibody only.
# Spheres were plated on pO/L plates, as described above, in PDGF Medium at day 30, changing ⅔ of the PDGF Medium every other day until day 75 of differentiation. The appearance of O4^+ cells was assessed by live O4 staining from day 55 onwards (FIG. 6). At day 75, O4^+ OPCs could be isolated by FACS (FIG. 7I). Alternatively, for terminal oligodendrocyte differentiation (FIG. 7G-7H), cells were cultured in Glial Medium from day 75, changing ⅔ of the medium every 3 days for two weeks.
# (§1) Cells were enzymatically harvested by ACCUTASE® treatment for 25 min at 37° C. to obtain a single cell suspension. Cells were then re-suspended in 100 μl of their respective medium containing the appropriate amount of either primary antibody or fluorescence-conjugated antibodies and were incubated on ice for 30 minutes shielded from light. When secondary antibodies were used, primary antibodies were washed with PBS and secondary antibodies were applied for 30 minutes on ice. […] Flow cytometry data were analyzed using BD FACSDiva™ software.
# [1] = system: OLIG2-GFP knock-in hESC reporter line; assay: Flow cytometric quantification of OLIG2-GFP expression under RA/SHH/SAG conditions; type: cell-based, human
# Description: FIGS. 2A-2D show the requirement for RA and SHH to derive OLIG2^+ progenitor cells. […] RA at a concentration of 100 nM from day 0 results in the highest yield of GFP^+ cells. […] Negative: hESC line RUES1. […] Error bars are SEM (N=3). […] Only GFP^+ cells form spheres, providing enrichment to the GFP^+ population.
# We used an OLIG2-GFP knock-in hESC reporter line (Liu et al., 2011) to track OLIG2^+ progenitors by live fluorescent imaging. First, we induced PAX6^+ cells using dual inhibition of SMAD signaling in adherent cultures. Chambers, S. M. et al., Nat Biotechnol. 27:275-80 (2009). Next, to mimic the embryonic spinal cord environment, we applied different concentrations of RA and/or SHH at various times and quantified OLIG2-GFP expression through flow cytometry (FIG. 2A).
# At day 12, cells were detached and placed into low-attachment plates to promote their aggregation into spheres. The minimum number of cells required to form a sphere was at least 100 cells, and we noted that the majority of cells in the spheres were GFP^+. To investigate this further, we sorted day 12 cultures for GFP, and observed that only the GFP^+ cells formed aggregates (FIG. 2C).
# At the day of differentiation induction (day 0), medium was switched to Neural Induction Medium, which is mTeSR Custom Medium (Stemcell Technologies) containing the small molecules SB431542 10 μM (Stemgent) and LDN193189 250 nM (Stemgent), as well as 100 nM all-trans-RA (Sigma-Aldrich; St. Louis, Mo.). mTeSR Custom Medium has the same composition as the commercially available mTeSR-1 medium but without five factors that sustain pluripotency, namely lithium chloride, GABA, pipecolic acid, bFGF, and TGFβ1 (Stemcell Technologies). […]
# as §1, with “light.” for “light. When secondary antibodies were used, primary antibodies were washed with PBS and secondary antibodies were applied for 30 minutes on ice.”
Structure (SMILES),Decrease in the O4^+ population in cells not provided with SAG (O4^+ cells),"OLIG2^+ progenitors yield ([1]; SAG replacing recombinant human SHH from day 8, with 100 nM RA from day 0)","OLIG2^+ progenitors generated ([1]; 100 nM RA from the beginning of induction, no exogenous SHH, OLIG2-GFP flow cytometry, day 14)","Yield of GFP^+ cells under different RA and SHH conditions ([1]; RA 100 nM from day 0, day 14 of differentiation)"
"CN[C@H]1CC[C@H](N(Cc2cccc(-c3ccncc3)c2)C(=O)c2sc3ccccc3c2Cl)CC1 [SAG, 3-chloro-N-[(1r,4r)-4-(methylamino)cyclohexyl]-N-[3-(pyridin-4-yl)benzyl]benzo[b]thiophene-2-carboxamide]",56%,70.1%,–,–
"CC1=C(/C=C/C(C)=C/C=C/C(C)=C/C(=O)O)C(C)(C)CCC1 [RA, all trans retinoic acid]",–,–,40.6%,highest yield
